Experiments:
Type in all cases: cell-based, Human
[1] = system: NK-92 cells against Reh cells; experiment: NK-92 cytolytic assay against NK resistant Reh target cells; conditions: 30 μM three days, IL-2 100 IU/mL, 3 h assay
Protocol: Human NK cell line NK-92 was purchased from American Type Culture Collection (ATCC) and cultured in α-MEM Essential Medium (no ribonucleoside and deoxyribonucleoside) supplemented with 0.2 mM Myo-inositol, 0.02 mM Folic Acid, 0.1 mM β-mercaptoethanol, 1% of Non-essential Amino Acids, 1×L-Glutamax, 1% of Penicillin/Streptomycin, 12.5% of heat-inactivated Horse, and 12.5% of heat-inactivated Characterized Fetal Bovine Serum or FBS. The media was supplemented freshly with 200 IU/mL of IL-2 upon cell thawing for one passage and 100 IU/mL of IL-2 for cell expansion. Human tumor cell lines K-562 and Reh were purchased from ATCC and were cultured in RPM11640 Medium supplemented with 1% of Penicillin/Streptomycin and 10% of heat inactivated FBS. HEK293T/17 cells and HCT116 cells were cultured in Dulbecco's Modified Eagle's Medium (DMEM) High Glucose Medium supplemented with 1% of Penicillin/Streptomycin and 10% of FBS. All cell lines were maintained in 5% CO2, 37° C. incubator, except that NK-92 were maintained in 6.5% CO2 incubator at 37° C. […]
NK-92 anti-tumor cytolysis function was assessed by flow cytometry-based analysis. […] Flow cytometry sample acquisition was performed with BDO LSRFortessa™ with a UV laser at Flow Cytometry Core Facility, McGill University, and data was analyzed with FlowJo™ 10.7.1 and summarized with Prism™ 9 (GraphPad™). […]

[2] = system: NK-92 cells; experiment: Lytic granule protein expression in NK-92 (flow cytometry, Western blot)
Protocol: (§1) Total cell lysate was prepared with modified RIPA buffer (1M Tris-HCl (pH 7.5), 5M NaCl, 0.25% sodium deoxycholate, 10% NP-40 and 10 mM sodium fluoride) supplemented with ethylenediaminetetraacetic acid (EDTA)-free protease inhibitor (Roche™) and 2 mM sodium orthovanadate (Sigma-Aldrich™). Protein levels were quantified by bicinchoninic acid (BCA) assay. Protein lysate was separated by 10% SDS-PAGE and Western analysis was performed using primary antibodies listed in the tables below followed with horseradish peroxidase (HRP, 1:10,000, Jackson ImmunoResearch™) conjugated secondary antibodies.
(§2) NK-92 cells pre-treated with L598 (30 μM) or vehicle control were stimulated with K-562 tumor target cells [effector: target (E:T) at 1:1] or PMA/lonomycin (1 μg/mL each) or no-stimulation control with K-562 complete media, respectively. Anti-CD107a or LAMP-1 antibody (1:100, PE/Cy7 conjugated, clone H4A3, from BioLegend®) was added to cells at the start of degranulation assay. Golgi stop (containing Monensin, 1 μM) and Golgi plug (containing Brefeldin A, 4 μg/mL) were added to cells one hour after degranulation assay started and were kept until the end of the 6-hour-degranulation assay. Intracellular staining of GrB (1:40, PE conjugated, clone QA18A28, from BioLegend®) and PRF (1:40, FITC conjugated, clone B-D48, from BioLegend®) were performed with the Fixation/Permeabilization Solution Kit (BD® Biosciences) according to the manufacture's protocol. Cells were stained with fixable viability dye (1:2000) for 20 mins on ice and in dark, and blocked with FcBlock (1:20, diluted in 1× Perm/Wash buffer, Human truStain FcX from BioLegend®) for 5 mins at room temperature and in dark before intracellular staining. Cell gating and percentage of population quantification was based on no-stimulation control. For kinetics of degranulation assay, measurements were taken over three hours at 15 mins, 30 mins, 60 mins, 120 mins and 180 mins, with L598 (30 μM, three days) treated group and vehicle control group under the condition of tumor target cell K-562 stimulation (E: T at 1:1) or no stimulation. Intracellular cytolytic granule contents GrA, GrB and PRF were measured as mentioned previously.

[3] = system: cord blood isolated NK cells; experiment: Surface receptor expression on cord blood NK cells (flow cytometry); conditions: 30 μM, with or without K-562 stimulation E:T 1:1, three hours
Source text: Human cord blood derived NK cells (CB-NK) were kindly provided by Dr. Linda Peltier's Cellular Therapy Laboratory at McGill University Health Center (Montreal, Canada) in frozen format and were stored in liquid nitrogen tank until usage. Briefly, 1×10^7 cells were resuspended in frozen medium consisting of ImmunoCult T Cell Medium supplemented with 10% DMSO final concentration. Frozen CB-NK cells were thawed, and ex vivo expanded at Goodman Cancer Research Center (GCRC) for five days in xeno-free ImmunoCult T cell expansion media supplemented with 10% PlasmaLyte A and freshly with a cytokine cocktail of IL-2 (5 ng/mL), IL-7 (5 ng/mL), IL-15 (5 ng/mL), SCF (15 ng/mL) and FLT3/L (10 ng/mL) every two days. […] On day three, inhibitor L598 and fresh cytokine cocktails were supplemented to the cell media. NK cell population purity and immunophenotype profiling of major activating and inhibitory receptors were assessed upon receiving shipments, after ex vivo expansion for five days and after anti-tumor cytolytic assay.

[4] = system: NK-92 cells against K-562 cells; experiment: NK-92 cytolytic assay against K-562 tumor target cells (flow cytometry)
Protocol: Human NK cell line NK-92 was purchased from American Type Culture Collection (ATCC) and cultured in α-MEM Essential Medium (no ribonucleoside and deoxyribonucleoside) supplemented with 0.2 mM Myo-inositol, 0.02 mM Folic Acid, 0.1 mM β-mercaptoethanol, 1% of Non-essential Amino Acids, 1×L-Glutamax, 1% of Penicillin/Streptomycin, 12.5% of heat-inactivated Horse, and 12.5% of heat-inactivated Characterized Fetal Bovine Serum or FBS. The media was supplemented freshly with 200 IU/mL of IL-2 upon cell thawing for one passage and 100 IU/mL of IL-2 for cell expansion. Human tumor cell lines K-562 and Reh were purchased from ATCC and were cultured in RPM11640 Medium supplemented with 1% of Penicillin/Streptomycin and 10% of heat inactivated FBS. HEK293T/17 cells and HCT116 cells were cultured in Dulbecco's Modified Eagle's Medium (DMEM) High Glucose Medium supplemented with 1% of Penicillin/Streptomycin and 10% of FBS. All cell lines were maintained in 5% CO2, 37° C. incubator, except that NK-92 were maintained in 6.5% CO2 incubator at 37° C. All cell lines were maintained below 30 passages and tested regularly for mycoplasma infection using PCR.
NK-92 anti-tumor cytolysis function was assessed by flow cytometry-based analysis. Tumor target cells K-562 and Reh were labelled with cell tracker CFSE ([…]) or CMRA (5 μM) according to manufacturer's protocol at a maximum of one day before cytolysis experiment. On the experiment day, labelled tumor target cells were washed once with PBS and resuspend to desired cell concentration in complete cell media. NK-92 cells were washed and resuspended in complete media without cytokines to desired cell concentration. NK-92 cells and tumor target cells were plated at various effector: target (E:T) ratios with basal cell numbers at 50,000 cells per well in round-bottom 96-well plate and were co-cultured for 3 hours in 5% CO2, 37° C. incubator. After co-culture, cells were washed once with ice-cold PBS and stained with fixable viability dyes: Aqua (Invitrogen™) or UV Blue (Invitrogen™) or eFluor 780 (eBioscience Invitrogen™) at 1:2000 in dark for 20 mins at 4° C. Stained cells were washed twice with ice cold PBS and were fixed with 1% Paraformaldehyde (PFA) for 1 hour or 2% PFA for 30 mins in dark at 4° C. Flow cytometry sample acquisition was performed with BDO LSRFortessa™ with a UV laser at Flow Cytometry Core Facility, McGill University, and data was analyzed with FlowJo™ 10.7.1 and summarized with Prism™ 9 (GraphPad™). Calculation for % of specific cytolysis was followed by the equation: […]

[5] = system: NK-92 cells; experiment: Multi-response analysis: cytokine production with degranulation in NK-92; conditions: 30 μM three days, tumor cell or PMA and ionomycin stimulation
Protocol: as §2, with “For kinetics of degranulation assay, measurements were taken over three hours at 15 mins, 30 mins, 60 mins, 120 mins and 180 mins, with L598 (30 μM, three days) treated group and vehicle control group under the condition of tumor target cell K-562 stimulation (E: T at 1:1) or no stimulation.” left out

[6] = system: SMAD2, SOCS1, SOCS3 in NK-92 cells; experiment: Western blot of phospho-SMAD2, SOCS1 and SOCS3 in NK-92; conditions: with inhibitor treatment
Protocol: as §1

“7-bromo-6-phosphono(difluoro-methyl)-3-napthalenonitrile [L598]” was tested, and the “NK-92 cytolysis towards NK resistant target cells Reh” value [1] was “did not improve”, the “thresholds of maximal expression of perforin and granzyme B” value ([2]; IL-2 titration, 30 μM) was “upregulated” and the “fold increase of perforin and granzyme B MFI over vehicle control” value ([2]; day three, IL-2 1250 IU/mL, 30 μM) was “approximately two-fold”. For the same substance, the “protein expression of perforin and granzyme B” value ([2]; gradual increasing concentration, three days) was “upregulated in a dosage dependent manner”, the “maximal expression of lytic granules after withdrawal, vs control” value ([2]; inhibitor withdrawn three consecutive days) was “similar” and the “fold change of perforin and granzyme B after withdrawal” value ([2]; inhibitor withdrawn three consecutive days, IL-2 titration) was “around one-fold”. The “fold change of intracellular perforin and granzyme over control” value ([2]; one-day treatment, IL-2 titration, 30 μM) was “started improving”, the “granzyme A protein expression” value ([2]; with or without inhibitor treatment) was “relatively stable” and the “granzyme B expression, treatment vs control group, without IL-2” value ([2]; without IL-2 stimulation) was “almost no difference”. The “CD69 and activating receptor expression on cord blood NK cells” value [3] was “upregulation”, the “NK-92 cytolysis against K-562 in presence of TGF-β1, vs vehicle control” value ([4]; 10 μM with TGF-β 10 ng/mL, IL-2 media, three days) was “continued exhibiting enhanced anti-tumor cytolysis” and the “cytolysis against K-562 after re-treatment” value ([4]; additional two-days treatment at same concentration) was “once more improved the anti-tumor cytolysis function to a similar level of the initial treatment”. For the same substance, the “tumor cytolysis by NK-92 against K-562 with inhibitor titration” value ([4]; dosage increased up to 90 μM, three days, various E:T ratios) was “gradual increasing of tumor cytolysis”, the “enhanced cytolysis against K-562 after inhibitor withdrawal” value ([4]; withdrawn for three days after initial 30 μM treatment) was “reversible” and the “percentages of CD107a+, IFN-γ+ and CD107a+, TNF-α+ cells” value [5] was “larger percentages”. For the same substance, the “TGF-β1 activated phosphorylation of SMAD2” value [6] was “did not change significantly” and the “expression of SOCS1 and SOCS3” value [6] was “did not change”.

Reference: US20250025500A1, “PHOSPHATASE INHIBITORS AS NK CELLS MODULATORS FOR THE TREATMENT OF CANCER” (Kanyr Pharma Inc., priority 2021, published 2025)
